Consider 39 compounds from ChEMBL document CHEMBL4739717, “Methods of treating cartilage disorders through inhibition of clk and dyrk” (2020).

Each structure is given as a SMILES string.

Assay [1] can be described thus: Inhibition of IL1-beta induced MMP3 expression levels in human chondrocytes assessed as MMP3 levels incubated for 2hrs followed by IL1-beta stimulation and measured after overnight incubation by LANCE assay. It is filed as functional, cell-based. As to conditions: Chondrocyte.
Assay [2] can be described thus: Effect on Wnt signaling pathway in human SW480 cells harbouring TCF/LEF luciferase reporter gene and SP5-Luc reporter gene incubated for 36 to 48 hrs by luminescence assay. It is filed as cell-based.
Assay [3] concerns the target Dual specificity tyrosine-phosphorylation-regulated kinase 1A (Homo sapiens, UniProt Q13627). In words: Inhibition of recombinant DYRK1A (unknown origin) using Ser/Thr 18 peptide as substrate incubated for 1 hr in presence of ATP by FRET assay.

For `CN1CCC(Oc2ccc(NC(=O)c3n[nH]cc3/C=C/c3cccnc3)cn2)CC1`, the results for the EC50 in assay [1], in assay [2] and in assay [3] were 3000 nM, 964 nM and 1 nM, respectively.

For `Cc1n[nH]c2ccc(-c3cncc(OCC4(F)CNC4)n3)cc12`, the EC50 in assay [1] was found to be 35 nM; in assay [2] it was 3250 nM; in assay [3] it was 25 nM.

Turning to `O=C(Nc1cccnc1)c1n[nH]c2ccc(-c3cncc(CN4CC(CO)(CO)C4)c3)cc12`, the EC50 in assay [1] is 69.7 nM; in assay [2], over 10000 nM; in assay [3], 2 nM.

For `Fc1cccc(-c2cncc3[nH]c(-c4n[nH]c5cnc(-c6cncc(OC7CCNCC7)c6)cc45)nc23)c1`, the EC50 was 1710 nM in assay [1], over 10000 nM in assay [2] and 5 nM in assay [3].

With `Cc1[nH]nc(C(=O)Nc2ccc(CN3CCCC3)cc2)c1/C=C/c1cccnc1`, the EC50 in assay [1] came out at 1050 nM; in assay [2], 2150 nM; in assay [3], 33 nM.

For the compound `O=C(CC1CCNCC1)Nc1cncc(-c2ccc3[nH]nc(-c4nc5c(-c6ccsc6)nccc5[nH]4)c3n2)c1`, the values for the EC50 in assay [1], in assay [2] and in assay [3] were 3000 nM, over 10000 nM and 10 nM, respectively.

Take `CC(C)n1cc(C(=O)Nc2cc3cc(-c4cncc(NC5CCN(C)CC5)n4)ncc3cn2)cn1`: the EC50 is 3000 nM in assay [1], 164 nM in assay [2] and 1 nM in assay [3].

`Cc1ccncc1-c1cc2c(-c3nc4c(-c5cc(F)cc(CNS(C)(=O)=O)c5)cncc4[nH]3)n[nH]c2cn1`: the figures for the EC50 in assay [1], in assay [2] and in assay [3] were 604 nM, 96.6 nM and 6 nM, respectively.

Regarding `CN1CCC(Nc2cc(C(=O)Nc3cc4cc(-c5cnn(C)c5)ccc4cn3)ccn2)CC1`, the EC50 in assay [1] was 3000 nM; in assay [2], 65.6 nM; in assay [3], 2 nM.

As to `Cc1n[nH]c2ccc(-c3cncc(N4CCC[C@H](N)C4)n3)cc12`, the figures for the EC50 in assay [1], in assay [2] and in assay [3] were 3000 nM, 1430 nM and 50 nM, respectively.

`O=C(Nc1cccnc1)c1n[nH]c2ncc(-c3cccnc3)cc12`: the figures for the EC50 in assay [1], in assay [2] and in assay [3] were 2.2 nM, 795 nM and 6 nM, respectively.

For `Cc1ncc(-c2ccc3[nH]nc(-c4nc5c(-c6cc(F)cc(NCCN(C)C)c6)ccnc5[nH]4)c3n2)n1C`, the 50% effective concentration (EC50) amounted to 12.8 nM in assay [1], 620 nM in assay [2] and 8 nM in assay [3].

In the case of `Cn1cc(-c2cc3c(C(=O)Nc4ccc(OCCN5CCCC5)cc4)n[nH]c3cc2F)cn1`, the EC50 in assay [1] came to 3000 nM; in assay [2], 315 nM; in assay [3], 1 nM.

Consider `CC(C)NC(=O)c1n[nH]c2ccc(-c3cncc(NC4CCNCC4)n3)cc12`, for which the EC50 in assay [1] turned out to be 2740 nM; in assay [2], 2400 nM; in assay [3], 1 nM.

For `Nc1ncc(NC(=O)c2n[nH]c3ccc(-c4cncc(CN5CCCCC5)c4)cc23)cn1`, the EC50 is 180 nM in assay [1], 30 nM in assay [2] and 1 nM in assay [3].

Regarding `O=C(Nc1ccc(N2CC(CO)(CO)C2)nc1)c1n[nH]c2ccc(-c3cncc(CN4CCCCC4)c3)cc12`, the EC50 in assay [1] was 6.7 nM; in assay [2] it was 1500 nM; in assay [3], 2 nM.

Take `O=C(Nc1cncc(-c2ccc3[nH]nc(-c4nc5c(-c6cccnc6)cncc5[nH]4)c3c2)c1)c1ccccc1`: the EC50 in assay [1] is 1.9 nM; in assay [2], over 10000 nM; in assay [3] it was 6 nM.

As for `CC#CC(=O)Nc1cc2cc(-c3cnn(C)c3)ccc2cn1`, the EC50 in assay [1] stood at 32.8 nM; in assay [2], 513 nM; in assay [3] it was 6 nM.

For the compound `Cc1ncc(C(=O)Nc2cc3cc(-c4cnc(C)n4C)ccc3cn2)s1`, the EC50 was found to be 3000 nM in assay [1], 102 nM in assay [2] and 1 nM in assay [3].

As for `Cc1n[nH]c2ccc(-c3cncc(N4CCC(O)CC4)n3)cc12`, the EC50 in assay [1] came out at 47.8 nM; in assay [2], 1900 nM; in assay [3] it was 22 nM.

As to `O=C(Nc1cccnc1)c1n[nH]c2cnc(-c3cncc(CN4CCCCC4)c3)cc12`, the EC50 in assay [1] stood at 138 nM; in assay [2] it was 848 nM; in assay [3], 4 nM.

As to `CCN(C)Cc1cncc(-c2cnc3[nH]nc(-c4nc5c(-c6cccc(F)c6)cncc5[nH]4)c3c2)c1`, the EC50 was 0.8 nM in assay [1], 643 nM in assay [2] and 8 nM in assay [3].

Regarding `COc1ccc(NC(=O)c2n[nH]c3ccc(-c4cncc(CO)c4)cc23)cn1`, the EC50 in assay [1] was 3000 nM; in assay [2] it was 96.6 nM; in assay [3], 1 nM.

`CC(C)n1cc(C(=O)Nc2cc3cc(-c4cncn4C)ccc3cn2)cn1`: the EC50 in assay [1] was found to be 1430 nM; in assay [2], 34.8 nM; in assay [3], 2 nM.

Turning to `CC(C)CC(=O)Nc1cncc(-c2cnc3[nH]nc(-c4nc5c(-c6cccc(F)c6)cncc5[nH]4)c3c2)c1`, the values for the EC50 in assay [1], in assay [2] and in assay [3] were 3000 nM, 0.6 nM and 2 nM, respectively.

In the case of `Cc1[nH]nc(C(=O)Nc2ccc(OC3CCN(C)CC3)nc2)c1/C=C/c1cccnc1`, the EC50 in assay [1] was 17.8 nM; in assay [2], over 10000 nM; in assay [3], 20 nM.

In the case of `CCC1(N)CN(c2cncc(-c3ccc4[nH]nc(C)c4c3)n2)C1`, the figures for the 50% effective concentration (EC50) in assay [1], in assay [2] and in assay [3] were 3000 nM, 1730 nM and 54 nM, respectively.

Turning to `COc1cncc(C(=O)Nc2c[nH]nc2C(=O)Nc2ccc3c(c2)CCN(C)C3)c1`, the EC50 turned out to be 3000 nM in assay [1], 558 nM in assay [2] and 8 nM in assay [3].

For the compound `CS(=O)(=O)c1ccc(NC(=O)c2n[nH]c3ccc(-c4cncc(CN5CCCCC5)c4)cc23)cn1`, the EC50 was 5.5 nM in assay [1], 27 nM in assay [2] and 1 nM in assay [3].

On to `Cc1n[nH]c2ccc(-c3cncc(N4CC(C)(N)C4)n3)cc12`, for which the figures for the EC50 in assay [1], in assay [2] and in assay [3] were 1610 nM, 3510 nM and 63 nM, respectively.

Consider `Cn1ncc(-c2ccc3cnc(NC(=O)[C@H]4CC[C@H](CO)CC4)cc3c2)c1CN1CCCCC1`, for which the results for the EC50 in assay [1], in assay [2] and in assay [3] were 3000 nM, 594 nM and 3 nM, respectively.

Take `Cc1n[nH]c2ccc(-c3cncc(OC[C@@H]4Cc5ccccc5CN4)n3)cc12`: the results for the EC50 in assay [1], in assay [2] and in assay [3] were 3000 nM, 2810 nM and 56 nM, respectively.

In the case of `CN1CC=C(c2cc(C(=O)Nc3cc4cc(-c5cncc(NC(C)(C)C)n5)cnc4cn3)ccn2)CC1`, the EC50 in assay [1] is 3000 nM; in assay [2], 357 nM.

With `NC(=O)c1n[nH]c2ccc(-c3cncc(CN4CCCCC4)c3)cc12`, the EC50 was 2.3 nM in assay [1] and 1960 nM in assay [2].

For `Cc1nnc(C(=O)Nc2cc3cc(-c4cncn4C)ccc3cn2)s1`, the EC50 in assay [1] is 71.5 nM; in assay [2], 1890 nM.

`CN1CCC(n2cc(C(=O)Nc3cc4cc(-c5cnc6cc[nH]c6c5)ccc4cn3)cn2)CC1`: the EC50 in assay [1] was 3000 nM; in assay [2], 26.8 nM.

As for `O=C(Nc1cc2cc(-c3cncc(NC4CCNCC4)n3)ncc2cn1)C1CCOCC1`, the results for the EC50 in assay [1] and in assay [2] were 46.6 nM and 3640 nM, respectively.

In the case of `O=C(Nc1cc2cc(-c3cncc(NCC4(F)CNC4)n3)ccc2cn1)C1CC1`, the EC50 worked out at 897 nM in assay [1] and 119 nM in assay [2].

`CC(C)Nc1cncc(-c2ccc3cnc(NC(=O)c4cccc(C5CCN(C)CC5)c4)cc3c2)n1`: the values for the EC50 in assay [1] and in assay [2] were 3000 nM and 132 nM, respectively.
